Source: PubChem BioAssay AID192 (DTP/NCI, 2004)
“And” between values parts separate entries of the source, which are not always exact repeats. Identical values can stand only once. Inconclusive results and toxic doses are left out. How the source made its calls: active means survival T/C of 150% or more; inactive means T/C below 125% in these data.

Test system: BDF1 mice, B16 melanoma ip, median survival T/C
Experiment: NCI In Vivo Anticancer Drug Screen. Data for tumor model B16 Melanoma (intraperitoneal) in B6D2F1 (BDF1) mice
Conditions: endpoint: median survival time, higher = longer survival
Outline: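 In this screen, activity was judged from survival or tumor size in treated versus vehicle-treated tumor-bearing mice, reported as T/C.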

[1] = dose: 50.0 mg/kg/injection, schedule: Q01DX009 (ip), vehicle: saline
[2] = dose: 12.5 mg/kg/injection, schedule: Q01DX009 (ip), vehicle: other
[3] = dose: 25.0 mg/kg/injection, schedule: Q01DX009 (ip), vehicle: saline
[4] = dose: 100.0 mg/kg/injection, schedule: Q01DX009 (ip), vehicle: saline
[5] = dose: 200.0 mg/kg/injection, schedule: Q01DX009 (ip), vehicle: saline
[6] = dose: 100.0 mg/kg/injection, schedule: Q01DX009 (ip), vehicle: Klucel (hydroxypropylcellulose) (HPC)

Measured: T/C

Cc1ccc2c(Nc3ccc(NS(C)(=O)=O)cc3)c3ccccc3nc2c1C
active: dose: 20.0 mg/kg/injection, schedule: Q01DX009 (ip), vehicle: saline with Tween-80 158 % of control | dose: 40.0 mg/kg/injection, schedule: Q01DX009 (ip), vehicle: saline sonified 185 % of control | dose: 40.0 mg/kg/injection, schedule: Q01DX009 (ip), vehicle: saline with Tween-80 163 % of control
inactive: dose: 5.0 mg/kg/injection, schedule: Q01DX009 (ip), vehicle: saline sonified 90 % of control | dose: 20.0 mg/kg/injection, schedule: Q01DX009 (ip), vehicle: other 117 % of control | [1] 100 % of control

NNC(=O)c1ccc(-c2ccccc2)cc1
inactive: [2] 93 % of control | dose: 25.0 mg/kg/injection, schedule: Q01DX009 (ip), vehicle: other 95 % of control | dose: 50.0 mg/kg/injection, schedule: Q01DX009 (ip), vehicle: other 100 % of control | dose: 100.0 mg/kg/injection, schedule: Q01DX009 (ip), vehicle: other 100 % of control

C/C=C(/C)C(=O)O[C@H]1CC[N+]2([O-])CC=C(COC(=O)[C@@](O)([C@H](C)OC)C(C)(C)O)[C@H]12 (stereo partly specified)
inactive: [3] 95 % of control | [1] 97 % of control | [4] 107 % of control | [5] 100 % of control

CN(C)CCC1(c2ccccc2)C=Cc2ccccc21 (stereo unspecified)
inactive: dose: 3.12 mg/kg/injection, schedule: Q01DX009 (ip), vehicle: saline 108 % of control | dose: 6.25 mg/kg/injection, schedule: Q01DX009 (ip), vehicle: saline 102 % of control | dose: 12.5 mg/kg/injection, schedule: Q01DX009 (ip), vehicle: saline 108 % of control | [3] 95 % of control

O=C(O)O.O=C(O)O.O=C(O)O.[Co]
inactive: dose: 25.0 mg/kg/injection, schedule: Q04DX003 (ip), vehicle: saline with Tween-80 88 % of control | dose: 50.0 mg/kg/injection, schedule: Q04DX003 (ip), vehicle: saline with Tween-80 91 % of control

C=C1C(=O)OC2C=C(C)C3C(O)CC(C)(O)C3CC12 (stereo unspecified)
inactive: [6] 88 % of control

CO[C@H]1C[C@](C)(O)Cc2cc3c(c(O)c21)C(=O)c1c(O)cc2c(c1C3=O)O[C@@H]1O[C@@]2(C)[C@H](O)[C@@H](N(C)C)[C@@H]1O
inactive: dose: 0.78 mg/kg/injection, schedule: Q01DX009 (ip), vehicle: other 110 % of control | dose: 1.56 mg/kg/injection, schedule: Q01DX009 (ip), vehicle: other 118 % of control | dose: 2.3 mg/kg/injection, schedule: Q01DX005 (iv), vehicle: other 97 % of control | dose: 4.5 mg/kg/injection, schedule: Q01DX005 (iv), vehicle: other 110 % of control | dose: 4.5 mg/kg/injection, schedule: Q01DX005 (oral), vehicle: other 95 % of control | dose: 4.5 mg/kg/injection, schedule: Q01DX009 (oral), vehicle: other 99 % of control | dose: 9.0 mg/kg/injection, schedule: Q01DX005 (iv), vehicle: other 112 % of control | dose: 9.0 mg/kg/injection, schedule: Q01DX005 (oral), vehicle: other 97 % of control | dose: 9.0 mg/kg/injection, schedule: Q01DX009 (oral), vehicle: other 107 % of control | dose: 18.0 mg/kg/injection, schedule: Q01DX001 (iv), vehicle: other 100 % of control | dose: 18.0 mg/kg/injection, schedule: Q01DX005 (oral), vehicle: other 108 % of control | dose: 18.0 mg/kg/injection, schedule: Q01DX009 (oral), vehicle: other 116 % of control | dose: 25.0 mg/kg/injection, schedule: Q01DX001 (ip), vehicle: water 100 % of control | dose: 36.0 mg/kg/injection, schedule: Q01DX001 (oral), vehicle: other 103 % of control | dose: 36.0 mg/kg/injection, schedule: Q01DX005 (oral), vehicle: other 121 % of control | dose: 72.0 mg/kg/injection, schedule: Q01DX001 (oral), vehicle: other 119 % of control
active: dose: 2.3 mg/kg/injection, schedule: Q01DX005 (ip), vehicle: other 169 % of control | dose: 2.3 mg/kg/injection, schedule: Q01DX009 (ip), vehicle: other 194 % of control | dose: 3.12 mg/kg/injection, schedule: Q01DX009 (ip), vehicle: other 159 % of control | dose: 3.13 mg/kg/injection, schedule: Q01DX009 (ip), vehicle: other 167 % of control | dose: 4.5 mg/kg/injection, schedule: Q01DX005 (ip), vehicle: other 200 % of control | dose: 4.5 mg/kg/injection, schedule: Q01DX009 (ip), vehicle: other 185 % of control | dose: 6.25 mg/kg/injection, schedule: Q01DX009 (ip), vehicle: other 173 % of control and 177 % of control and 183 % of control | dose: 9.0 mg/kg/injection, schedule: Q01DX005 (ip), vehicle: other 213 % of control | dose: 9.0 mg/kg/injection, schedule: Q01DX009 (ip), vehicle: other 272 % of control | dose: 10.8 mg/kg/injection, schedule: Q04DX003 (ip), vehicle: lactic acid 203 % of control | [2] 167 % of control and 191 % of control and 209 % of control | dose: 18.0 mg/kg/injection, schedule: Q01DX001 (ip), vehicle: other 158 % of control | dose: 18.0 mg/kg/injection, schedule: Q01DX005 (ip), vehicle: other 236 % of control | dose: 36.0 mg/kg/injection, schedule: Q01DX001 (ip), vehicle: other 153 % of control

CCCCNC=O
inactive: [4] 102 % of control | [5] 102 % of control | dose: 400.0 mg/kg/injection, schedule: Q01DX009 (ip), vehicle: saline 116 % of control

O=C(O)CC(=O)O.[NH-]C1CCCCC1[NH-].[Pt+2] (stereo unspecified)
active: dose: 10.0 mg/kg/injection, schedule: Q01DX009 (ip), vehicle: dextrose 150 % of control | dose: 12.5 mg/kg/injection, schedule: Q01DX009 (ip), vehicle: dextrose 196 % of control | dose: 24.0 mg/kg/injection, schedule: Q01DX009 (ip), vehicle: other 150 % of control | dose: 25.0 mg/kg/injection, schedule: Q01DX009 (ip), vehicle: dextrose 163 % of control

COCCNCCN1CCN(CCCN2c3ccccc3Sc3ccc(C(F)(F)F)cc32)CC1
inactive: dose: 3.75 mg/kg/injection, schedule: Q01DX009 (ip), vehicle: saline 109 % of control | dose: 7.5 mg/kg/injection, schedule: Q01DX009 (ip), vehicle: saline 107 % of control | dose: 15.0 mg/kg/injection, schedule: Q01DX009 (ip), vehicle: saline 111 % of control | dose: 30.0 mg/kg/injection, schedule: Q01DX009 (ip), vehicle: saline 88 % of control

CCCC(C(=O)O)C(CCC)C(=O)O (stereo unspecified)
inactive: dose: 100.0 mg/kg/injection, schedule: Q04DX003 (ip), vehicle: saline with Tween-80 97 % of control | dose: 200.0 mg/kg/injection, schedule: Q04DX003 (ip), vehicle: saline with Tween-80 88 % of control | dose: 400.0 mg/kg/injection, schedule: Q04DX003 (ip), vehicle: saline with Tween-80 88 % of control

C=CC(=O)[O][Pb]([CH3])([CH3])[CH3]
inactive: dose: 0.75 mg/kg/injection, schedule: Q01DX009 (ip), vehicle: saline with Tween-80 94 % of control | dose: 1.5 mg/kg/injection, schedule: Q01DX009 (ip), vehicle: saline with Tween-80 95 % of control

CNC(=S)C(=S)NC
inactive: dose: 6.25 mg/kg/injection, schedule: Q01DX009 (ip), vehicle: saline with Tween-80 102 % of control | dose: 12.5 mg/kg/injection, schedule: Q01DX009 (ip), vehicle: saline with Tween-80 120 % of control | dose: 25.0 mg/kg/injection, schedule: Q01DX009 (ip), vehicle: saline with Tween-80 107 % of control

COc1ccc2[nH]c3ccc4cc[n+](CCN5CCC(C6CCN(CC[n+]7ccc8ccc9[nH]c%10ccc(OC)cc%10c9c8c7)CC6)CC5)cc4c3c2c1
inactive: [6] 100 % of control
active: dose: 12.5 mg/kg/injection, schedule: Q01DX009 (ip), vehicle: Klucel (hydroxypropylcellulose) (HPC) 150 % of control | dose: 25.0 mg/kg/injection, schedule: Q01DX009 (ip), vehicle: Klucel (hydroxypropylcellulose) (HPC) 194 % of control | dose: 50.0 mg/kg/injection, schedule: Q01DX009 (ip), vehicle: Klucel (hydroxypropylcellulose) (HPC) 180 % of control

C[As](C)Sc1ncccn1
inactive: dose: 3.13 mg/kg/injection, schedule: Q01DX009 (ip), vehicle: Klucel (hydroxypropylcellulose) (HPC) 100 % of control | dose: 6.25 mg/kg/injection, schedule: Q01DX009 (ip), vehicle: Klucel (hydroxypropylcellulose) (HPC) 100 % of control
